The values that follow come from patent publication US20250011330A1, “Imidazo[1,2- a]pyrazine and Imidazo[1,2- a]pyridine Based Tyrosyl-DNA Phosphodiesterase I (TDP1) Inhibitors” (The USA, As Represented by the Secretary, Department of …, priority 2021, published 2025).

The target in assay [1] is TDP2 (Homo sapiens (Human), UniProt O95551). Kind of assay: gel-based TDP2 fluorescence assay in vitro. It counts as biochemical. Particulars: read-out: TDP2 IC50. The protocol:
(§1) (TDP assay buffer: 50 mM Tris HCl, pH 7.5, 80 mM KCl, 2 mM EDTA, 1 mM DTT, 40 μg/ml BSA and 0.01% Tween-20. TDP1 (20 mg/mL in 25 mM Tris-HCl pH 7.2, 150 mM NaCl, 2 mM tris(2-carboxyethyl)phosphine) with 2 mL of well solution composed of 0.1 M MOPS/HEPES pH 7.5, 10% (w/v) PEG 8000, 20% (v/v) ethylene glycol, 0.03 M sodium fluoride, 0.03 M sodium bromide, 0.03 M sodium iodide, 0.03 M sodium bromide and sealed over […] well solution. AF647 labelling buffer: Tris-HCl (pH 7.2, 25 mM), NaCl (150 mM), and tris(2-carboxyethyl)phosphine hydrochloride (TCEP, 2 mM).)
(§2) (DNA only: Buffer+DMSO. DMSO only: Enzyme+DMSO. Drug: Enzyme+Drug, 25° C., 10 min+DNA, reaction at 25° C., 15 min.)

In assay [2] the target is TDP1 (Homo sapiens (Human), UniProt Q9NUW8). Briefly: TDP1 gel-based in vitro fluorescence assay. It counts as biochemical. Particulars: for IC50: read-out: TDP1 IC50. The protocol:
as §1, §2
Gel images were scanned using a Typhoon FLA 9500 scanner (GE Healthcare) and densitometric analyses were performed using the ImageQuant software (GE Healthcare). The IC50 of TDP1 inhibitors was calculated by comparing the percentage of cleavage product (5′Cy5-[…]-p-3′) to DMSO control.

[3] abbreviates: Table 7, HPLC-purified oxime leads.
[4] abbreviates: Table 7, ratio of IC50 TDP2 to TDP1.
The mark [5] stands for this setting: Table 8, lead compounds with different linkers.
Where [6] appears, read: Table 9, fluorosulfates and sulfonyl fluorides.

SMILES strings stand for the structures. Like-named read-outs stand apart in the source and are kept apart here.

Chain of TDP1 (Q9NUW8 whole entry): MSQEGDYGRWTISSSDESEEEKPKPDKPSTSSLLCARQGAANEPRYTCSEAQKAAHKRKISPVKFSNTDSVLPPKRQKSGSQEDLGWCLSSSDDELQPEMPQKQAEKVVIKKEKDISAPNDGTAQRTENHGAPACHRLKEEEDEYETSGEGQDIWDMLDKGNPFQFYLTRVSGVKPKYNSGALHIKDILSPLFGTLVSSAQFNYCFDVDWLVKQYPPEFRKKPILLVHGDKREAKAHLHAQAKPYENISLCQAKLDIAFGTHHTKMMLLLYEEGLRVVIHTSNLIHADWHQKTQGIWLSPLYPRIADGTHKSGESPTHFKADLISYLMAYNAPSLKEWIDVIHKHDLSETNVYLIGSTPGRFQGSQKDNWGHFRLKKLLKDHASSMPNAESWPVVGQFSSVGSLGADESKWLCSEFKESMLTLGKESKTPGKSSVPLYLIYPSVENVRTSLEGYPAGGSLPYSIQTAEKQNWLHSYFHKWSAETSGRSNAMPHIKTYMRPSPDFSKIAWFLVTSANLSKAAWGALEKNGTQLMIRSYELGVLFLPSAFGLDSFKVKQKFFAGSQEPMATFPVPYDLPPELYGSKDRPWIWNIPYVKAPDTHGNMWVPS
Chain of TDP2 (O95551 whole entry, species assumed): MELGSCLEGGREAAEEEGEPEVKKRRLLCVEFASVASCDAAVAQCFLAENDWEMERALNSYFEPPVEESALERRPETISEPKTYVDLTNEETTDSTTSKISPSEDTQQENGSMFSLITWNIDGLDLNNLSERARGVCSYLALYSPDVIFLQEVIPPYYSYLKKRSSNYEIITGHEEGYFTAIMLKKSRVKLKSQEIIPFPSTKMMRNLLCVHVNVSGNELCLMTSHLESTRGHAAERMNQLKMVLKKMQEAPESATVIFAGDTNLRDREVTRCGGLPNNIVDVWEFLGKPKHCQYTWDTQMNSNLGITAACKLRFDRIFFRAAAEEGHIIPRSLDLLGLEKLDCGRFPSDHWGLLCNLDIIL

Take `Cc1ncsc1-c1ccc(CNC(=O)[C@@H]2C[C@@H](O)CN2C(=O)[C@@H](NC(=O)COCCOCCn2cc(-c3ccn4c(Nc5ccc(C(=O)O)cc5)c(-c5ccccc5)nc4c3)nn2)C(C)(C)C)cc1` [XZ682, 4-((7-(1-(2-(2-(2-(((S)-1-((2S,4R)-4-Hydroxy-2-((4-(4-methylthiazol-5-yl)benzyl)carbamoyl)pyrrolidin-1-yl)-3,3-dimethyl-1-oxobutan-2-yl)amino)-2-oxoethoxy)ethoxy)ethyl)-1H-1,2,3-triazol-4-yl)-2-phenylimidazo[1,2-a]pyridin-3-yl)amino)benzoic acid]: the IC50 (as a rule, the point on the concentration scale where inhibition reaches its midpoint) in assay [1] (Table 10, PROTACs) is greater than 100 µM; in assay [2] (Table 10, PROTACs) it was greater than 100 µM.
As to `Cc1ncsc1-c1ccc(CNC(=O)[C@@H]2C[C@@H](O)CN2C(=O)[C@@H](NC(=O)COCCOCCOCCn2cc(-c3ccn4c(Nc5ccc(C(=O)O)cc5)c(-c5ccccc5)nc4c3)nn2)C(C)(C)C)cc1` [XZ683, 4-((7-(1-((S)-13-((2S,4R)-4-Hydroxy-2-((4-(4-methylthiazol-5-yl)benzyl)carbamoyl)pyrrolidine-1-carbonyl)-14,14-dimethyl-11-oxo-3,6,9-trioxa-12-azapentadecyl)-1H-1,2,3-triazol-4-yl)-2-phenylimidazo[1,2-a]pyridin-3-yl)amino)benzoic acid], the IC50 was greater than 100 µM in assay [1] (Table 10, PROTACs) and greater than 100 µM in assay [2] (Table 10, PROTACs).
In the case of `Cc1ncsc1-c1ccc(CNC(=O)[C@@H]2C[C@@H](O)CN2C(=O)[C@@H](NC(=O)COCCOCCOCCOCCn2cc(-c3ccn4c(Nc5ccc(C(=O)O)cc5)c(-c5ccccc5)nc4c3)nn2)C(C)(C)C)cc1` [XZ684, 4-((7-(1-((S)-16-((2S,4R)-4-Hydroxy-2-((4-(4-methylthiazol-5-yl)benzyl)carbamoyl)pyrrolidine-1-carbonyl)-17,17-dimethyl-14-oxo-3,6,9,12-tetraoxa-15-azaoctadecyl)-1H-1,2,3-triazol-4-yl)-2-phenylimidazo[1,2-a]pyridin-3-yl)amino)benzoic acid], the 50% inhibitory concentration (IC50) in assay [1] (Table 10, PROTACs) is greater than 100 µM; in assay [2] (Table 10, PROTACs), greater than 100 µM.
As for `O=C(COc1cccc2c1C(=O)N(C1CCC(=O)NC1=O)C2=O)NCCCCn1cc(-c2ccn3c(Nc4ccc(C(=O)O)cc4)c(-c4ccccc4)nc3c2)nn1` (stereo not shown) [XZ685, 4-((7-(1-(4-(2-((2-(2,6-dioxopiperidin-3-yl)-1,3-dioxoisoindolin-4-yl)oxy)acetamido)butyl)-1H-1,2,3-triazol-4-yl)-2-phenylimidazo[1,2-a]pyridin-3-yl)amino)benzoic acid], the IC50 in assay [1] (Table 10, PROTACs) was greater than 100 µM; in assay [2] (Table 10, PROTACs), greater than 100 µM.
Consider `O=C(COc1cccc2c1C(=O)N(C1CCC(=O)NC1=O)C2=O)NCCCCn1cc(COc2ccc(-c3nc4cc(-c5ccccc5)ccn4c3Nc3ccc(C(=O)O)cc3)cc2)nn1` (stereo not shown) [XZ686, 4-((2-(4-((1-(4-(2-((2-(2,6-Dioxopiperidin-3-yl)-1,3-dioxoisoindolin-4-yl)oxy)acetamido)butyl)-1H-1,2,3-triazol-4-yl)methoxy)phenyl)-7-phenylimidazo[1,2-a]pyridin-3-yl)amino)benzoic acid], for which the 50% inhibitory concentration (IC50) in assay [1] (Table 10, PROTACs) is greater than 100 µM; in assay [2] (Table 10, PROTACs), greater than 100 µM.
As for `O=C(COc1cccc2c1C(=O)N(C1CCC(=O)NC1=O)C2=O)NCCCCn1cc(COc2ccc(-c3nc4ccccn4c3Nc3ccc(C(=O)O)cc3)cc2)nn1` (stereo not shown) [XZ688, 4-((2-(4-((1-(4-(2-((2-(2,6-Dioxopiperidin-3-yl)-1,3-dioxoisoindolin-4-yl)oxy)acetamido)butyl)-1H-1,2,3-triazol-4-yl)methoxy)phenyl)imidazo[1,2-a]pyridin-3-yl)amino)benzoic acid], the IC50 in assay [1] (Table 10, PROTACs) is greater than 100 µM; in assay [2] (Table 10, PROTACs), greater than 100 µM.
As for `O=C(COc1cccc2c1C(=O)N(C1CCC(=O)NC1=O)C2=O)NCCCCn1cc(-c2ccc(-c3nc4ccccn4c3Nc3ccc(C(=O)O)cc3)cc2)nn1` (stereo not shown) [XZ689, 4-((2-(4-(1-(4-(2-((2-(2,6-dioxopiperidin-3-yl)-1,3-dioxoisoindolin-4-yl)oxy)acetamido)butyl)-1H-1,2,3-triazol-4-yl)phenyl)imidazo[1,2-a]pyridin-3-yl)amino)benzoic acid], the IC50 in assay [1] (Table 10, PROTACs) was greater than 100 µM; in assay [2] (Table 10, PROTACs), greater than 100 µM.
Regarding `Cc1cncc(Oc2ccc(/C=N/OCc3ccc(-c4nc5cc(-c6ccccc6)ccn5c4Nc4ccc(C(=O)O)cc4)cc3)cc2)n1` [XZ704, (E)-4-((2-(4-((((4-((6-methylpyrazin-2-yl)oxy)benzylidene)amino)oxy)methyl)phenyl)-7-phenylimidazo[1,2-a]pyridin-3-yl)amino)benzoic acid], the IC50 in assay [1] (setting [3]) was greater than 100 µM. Besides, the “FC (fold change)” value in assay [2] (setting [4]) is listed as greater than 1.
For `O=C(O)c1ccc(Nc2c(-c3ccc(CO/N=C/c4ccc(-c5ccccc5)cc4)cc3)nc3cc(-c4ccccc4)ccn23)cc1` [XZ705, (E)-4-((2-(4-(((([1,1′-Biphenyl]-4-ylmethylene)amino)oxy)methyl)phenyl)-7-phenylimidazo[1,2-a]pyridin-3-yl)amino)benzoic acid], the IC50 in assay [1] (setting [3]) is greater than 100 µM. Moreover, the “FC (fold change)” value in assay [2] (setting [4]) was greater than 2.
For `Cc1cncc(Oc2ccc(/C=N/OCc3ccc4nc(-c5ccccc5)c(Nc5ccc(C(=O)O)cc5)n4c3)cc2)n1` [XZ707, (E)-4-((6-((((4-((6-methylpyrazin-2-yl)oxy)benzylidene)amino)oxy)methyl)-2-phenylimidazo[1,2-a]pyridin-3-yl)amino)benzoic acid], the IC50 in assay [1] (setting [3]) and in assay [2] (setting [3]) was greater than 100 µM throughout.
In the case of `O=C(O)c1ccc(Nc2c(-c3ccc(CO/N=C\c4ccc(-c5cnccn5)cc4)cc3)nc3cc(-c4ccccc4)ccn23)cc1` [XZ709, (Z)-4-((7-Phenyl-2-(4-((((4-(pyrazin-2-yl)benzylidene)amino)oxy)methyl)phenyl)imidazo[1,2-a]pyridin-3-yl)amino)benzoic acid], the IC50 in assay [1] (setting [3]) was greater than 100 µM. The “FC (fold change)” value in assay [2] (setting [4]) is greater than 2.
`O=C(O)c1ccc(Nc2c(-c3ccc(CO/N=C\c4ccc(N5CCCC5=O)cc4)cc3)nc3cc(-c4ccccc4)ccn23)cc1` [XZ710, (Z)-4-((2-(4-((((4-(2-Oxopyrrolidin-1-yl)benzylidene)amino)oxy)methyl)phenyl)-7-phenylimidazo[1,2-a]pyridin-3-yl)amino)benzoic acid]: the 50% inhibitory concentration (IC50) in assay [1] (setting [3]) is greater than 100 µM. In addition, in assay [2] (setting [4]), the “FC (fold change)” value is on record as greater than 13.
For `Cc1cncc(Oc2ccc(/C=N\OCc3ccc(-c4nc5cc(-c6ccccc6)ccn5c4Nc4ccc(C(=O)O)cc4)cc3)cc2)n1` [XZ711, (Z)-4-((2-(4-((((4-((6-methylpyrazin-2-yl)oxy)benzylidene)amino)oxy)methyl)phenyl)-7-phenylimidazo[1,2-a]pyridin-3-yl)amino)benzoic acid] the same measures were greater than 100 µM and greater than 2.
For `O=C(O)c1ccc(Nc2c(-c3ccc(CO/N=C\c4ccc(-c5ccccc5)cc4)cc3)nc3cc(-c4ccccc4)ccn23)cc1` [XZ712, (Z)-4-((2-(4-(((([1,1′-Biphenyl]-4-ylmethylene)amino)oxy)methyl)phenyl)-7-phenylimidazo[1,2-a]pyridin-3-yl)amino)benzoic acid], the IC50 in assay [1] (setting [3]) is greater than 100 µM. In assay [2] (setting [4]), the “FC (fold change)” value is listed as greater than 2.
For `N#Cc1ccc(-c2ccc(/C=N\OCc3ccc4nc(-c5ccccc5)c(Nc5ccc(C(=O)O)cc5)n4c3)cc2)nc1` [XZ717, (Z)-4-((6-((((4-(5-Cyanopyridin-2-yl)benzylidene)amino)oxy)methyl)-2-phenylimidazo[1,2-a]pyridin-3-yl)amino)benzoic acid], the half-maximal inhibitory concentration (IC50) in assay [1] (setting [3]) was greater than 100 µM; in assay [2] (setting [3]), 50.3 ± 10.7 µM. Further, the “FC (fold change)” value in assay [2] (setting [4]) is greater than 2.
Take `N#Cc1ccc(-c2ccc(Cn3cc(COc4ccc(-c5nc6ccccn6c5Nc5ccc(C(=O)O)cc5)cc4)nn3)cc2)nc1` [XZ721, 4-((2-(4-((1-(4-(5-Cyanopyridin-2-yl)benzyl)-1H-1,2,3-triazol-4-yl)methoxy)phenyl)imidazo[1,2-a]pyridin-3-yl)amino)benzoic acid]: the figures for the IC50 in assay [1] (setting [5]) and in assay [2] (setting [5]) were greater than 100 µM and 60 ± 17 µM, respectively. The “FC (fold change)” value in assay [2] (Table 8, ratio of IC50 TDP2 to TDP1) is greater than 1.
In the case of `O=C(O)c1ccc(Nc2c(-c3ccc(OS(=O)(=O)F)cc3)nc3cc(-c4ccccc4)ccn23)cc1` [XZ728, 4-((2-(4-((Fluorosulfonyl)oxy)phenyl)-7-phenylimidazo[1,2-a]pyridin-3-yl)amino)benzoic acid], the IC50 in assay [1] (setting [6]) and in assay [2] (setting [6]) was greater than 100 µM throughout.
Regarding `O=C(O)c1ccc(Nc2c(-c3cccc(OS(=O)(=O)F)c3)nc3cc(-c4ccccc4)ccn23)cc1` [XZ729, 4-((2-(3-((Fluorosulfonyl)oxy)phenyl)-7-phenylimidazo[1,2-a]pyridin-3-yl)amino)benzoic acid], the IC50 in assay [1] (setting [6]) and in assay [2] (setting [6]) was greater than 100 µM each time.
For `O=C1CCC(N2C(=O)c3cccc(NCCCCCCNCc4ccc(-c5nc6cc(-c7ccccc7)ccn6c5Nc5ccc(C(=O)O)cc5)cc4)c3C2=O)C(=O)N1` (stereo not shown) [XZ742, 4-((2-(4-(((6-((2-(2,6-Dioxopiperidin-3-yl)-1,3-dioxoisoindolin-4-yl)amino)hexyl)amino)methyl)phenyl)-7-phenylimidazo[1,2-a]pyridin-3-yl)amino)benzoic acid], the IC50 is greater than 100 µM in assay [1] (Table 10, PROTACs) and greater than 100 µM in assay [2] (Table 10, PROTACs).
